Patent US7713994B2 (Wyeth LLC, priority 2005, dated 2010)
Like-named read-outs stand apart in the source and are kept apart here.

Assays:
BT474 = experiment: Cytotoxicity assay (SRB), BT474; assay type: cell-based
Method in brief: (§1)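 Cells seeded overnight at 37 °C, 7% CO2 (BT474 12000, HCT-116 4000, LoVo and MCF-7 6000 cells/well) in RPMI 1640 with 5% FBS, then exposed to compound dilutions for 3 days (BT474 6 days). Survival versus untreated controls by TCA fixation and SRB staining, absorbance 540 nm.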

HCT-116 = experiment: Cytotoxicity assay (SRB), HCT-116; assay type: cell-based; details: Homo sapiens, HCT-116, 72 h, HCT116 cells, SRB, read-out: In Vitro Cellular Activity IC50 HCT116
Method in brief: as §1

cyclin E/CDK2 enzyme = target: T1, cyclin E/CDK2 enzyme (Homo sapiens, UniProt P24941); experiment: CDK2 ELISA kinase assay (phospho-Rb ser 795 detection); assay type: biochemical
T1 construct: made in house; host or cells: Sf9 insect cells, recombinant baculovirus
Method in brief: (§2)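 GST-Rb C-terminal fragment coated on wells; kinase reaction: 200 μM ATP, 0.5 mg/ml BSA, HEPES pH 7.5, 10 mM MgCl2, baculovirus/Sf9 cyclin-CDK, 30° C, 1 h. Readout anti-phospho-Rb Ser795, HRP, TMB, A450. Test compound 10 ug/ml final.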

cyclin D1/cdk 4 enzyme = target: T2, cyclin D1/cdk 4 enzyme (Homo sapiens, UniProt P11802); experiment: CDK4 ELISA kinase assay (phospho-Rb ser 795 detection); assay type: biochemical
T2 construct: made in house; host or cells: Sf9 insect cells, recombinant baculovirus
Method in brief: as §2

cyclin B/CDK1 enzyme = target: T3, cyclin B/CDK1 enzyme (Homo sapiens, UniProt P06493); experiment: CDK1 ELISA kinase assay (phospho-Rb ser 795 detection); assay type: biochemical
T3 construct: purchased New England BioLabs; host or cells: Sf9 insect cells, recombinant baculovirus
Method in brief: as §2

LoVo = experiment: Cytotoxicity assay (SRB), LoVo; assay type: cell-based; details: Homo sapiens, LoVo, 72 h, LoVo cells, SRB, read-out: In Vitro Cellular Activity IC50 LOVO
Method in brief: as §1

MCF-7 = experiment: Cytotoxicity assay (SRB), MCF-7; assay type: cell-based; details: Homo sapiens, MCF7, 72 h, MCF-7 cells, SRB, read-out: In Vitro Cellular Activity IC50 MCF-7
Method in brief: as §1

[1] = Homo sapiens, BT-474, 144 h, BT474 cells, 6 days, SRB; read-out: In Vitro Cellular Activity IC50 BT474
[2] = In Vitro Enzyme Assay, cyclin E/CDK2, read-out: CDK2 IC50
[3] = In Vitro Enzyme Assay, cyclin D1/cdk 4, read-out: CDK4 IC50
[4] = In Vitro Enzyme Assay, cyclin B/CDK1, read-out: CDK1 IC50
[5] = Homo sapiens, BT-474, 144 h, BT474 cells, SRB, 6 days; read-out: In Vitro Cellular Activity IC50 BT474
[6] = In Vitro Enzyme Assays, read-out: CDK2 IC50
[7] = In Vitro Enzyme Assays, 200 μM ATP, read-out: CDK4 IC50
[8] = In Vitro Enzyme Assays, read-out: CDK1 IC50

T3 sequence (P06493 whole entry): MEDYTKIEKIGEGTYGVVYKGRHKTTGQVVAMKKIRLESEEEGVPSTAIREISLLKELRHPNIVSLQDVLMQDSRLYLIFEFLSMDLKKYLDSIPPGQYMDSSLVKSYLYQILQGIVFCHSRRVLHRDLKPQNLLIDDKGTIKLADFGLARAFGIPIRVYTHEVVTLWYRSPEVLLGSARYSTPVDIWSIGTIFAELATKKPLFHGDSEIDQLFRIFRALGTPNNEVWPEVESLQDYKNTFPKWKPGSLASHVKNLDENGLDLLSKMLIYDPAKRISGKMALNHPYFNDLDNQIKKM
T3 sequence (P14635 whole entry partner): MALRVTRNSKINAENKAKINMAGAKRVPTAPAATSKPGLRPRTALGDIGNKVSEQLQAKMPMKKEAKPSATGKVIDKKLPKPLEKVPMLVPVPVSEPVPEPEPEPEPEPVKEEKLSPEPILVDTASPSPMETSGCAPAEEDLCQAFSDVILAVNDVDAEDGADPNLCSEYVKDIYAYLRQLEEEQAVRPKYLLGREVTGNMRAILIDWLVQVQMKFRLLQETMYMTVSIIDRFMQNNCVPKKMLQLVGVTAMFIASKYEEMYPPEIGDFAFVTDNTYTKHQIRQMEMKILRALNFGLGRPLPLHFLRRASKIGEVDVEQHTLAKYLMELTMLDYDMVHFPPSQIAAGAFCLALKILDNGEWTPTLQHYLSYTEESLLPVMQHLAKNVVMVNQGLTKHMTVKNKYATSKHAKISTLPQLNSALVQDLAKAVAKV
T2 sequence (P11802 whole entry, species assumed): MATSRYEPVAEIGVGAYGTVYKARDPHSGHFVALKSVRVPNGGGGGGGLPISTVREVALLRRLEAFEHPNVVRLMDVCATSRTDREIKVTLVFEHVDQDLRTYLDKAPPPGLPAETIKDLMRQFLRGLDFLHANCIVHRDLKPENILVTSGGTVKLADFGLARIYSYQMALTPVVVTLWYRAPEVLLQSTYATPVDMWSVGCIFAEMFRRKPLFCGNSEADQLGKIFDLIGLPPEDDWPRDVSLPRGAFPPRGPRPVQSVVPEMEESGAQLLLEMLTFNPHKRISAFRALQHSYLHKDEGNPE
T2 sequence (P24385 whole entry partner, species assumed): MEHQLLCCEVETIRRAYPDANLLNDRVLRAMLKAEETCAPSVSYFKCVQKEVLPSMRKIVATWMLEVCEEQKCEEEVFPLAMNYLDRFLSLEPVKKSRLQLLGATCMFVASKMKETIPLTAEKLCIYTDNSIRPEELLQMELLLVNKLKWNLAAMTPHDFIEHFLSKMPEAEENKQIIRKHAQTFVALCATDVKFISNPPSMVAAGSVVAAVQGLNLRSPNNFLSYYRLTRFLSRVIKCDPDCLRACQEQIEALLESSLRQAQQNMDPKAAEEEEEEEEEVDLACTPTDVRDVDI

Row | SMILES | melting point | IC50 (cyclin E/CDK2 enzyme; [2]) | IC50 (cyclin D1/cdk 4 enzyme; [3]) | IC50 (cyclin B/CDK1 enzyme; [4]) | IC50 (cyclin E/CDK2 enzyme; [6]) | IC50 (cyclin D1/cdk 4 enzyme; [7]) | IC50 (cyclin B/CDK1 enzyme; [8]) | IC50 (BT474; [1]) | IC50 (HCT-116; 3 days) | IC50 (LoVo; 3 days) | IC50 (MCF-7; 3 days) | IC50 (BT474; [5]) | IC50 (HCT-116; three days) | IC50 (LoVo; three days) | IC50 (MCF-7; three days)
1 | O=C1NC(=O)c2ccc(I)cc2/C1=C/Nc1ccc(CN2CCC(CCO)CC2)cc1 [Example 480, (4Z)-4-{[(4-{[4-(2-Hydroxyethyl)piperidin-1-yl]methyl}phenyl)amino]methylene}-6-iodoisoquinoline-1,3(2H,4H)-dione] | 223 to 224 °C | 26500 nM | 210 nM | > 50000 nM |  |  |  | 1000 nM | 3300 nM | 4500 nM | 1600 nM |  |  |  | 
2 | CCCOc1ccc(CNC=C2C(=O)NC(=O)c3ccc(-n4cccc4)cc32)cc1O [Example 278, 4-[(3-Hydroxy-4-propoxy-benzylamino)-methylene]-6-pyrrol-1-yl-4H-isoquinoline-1,3-dione] | 215 to 216 °C (dec.) |  |  |  | > 50000 nM | 30 nM | > 50000 nM |  |  |  |  | 5000 nM | 2900 nM | 4700 nM | 6300 nM
3 | O=C1NC(=O)c2ccc(-c3ccc(F)cc3)cc2/C1=C/Nc1ccc(CN2CCC(CCO)CC2)cc1 [Example 482, (4Z)-6-(4-Fluorophenyl)-4-{[(4-{[4-(2-hydroxyethyl)piperidin-1-yl]methyl}phenyl)amino]methylene}isoquinoline-1,3(2H,4H)-dione] | 202 to 203 °C | > 50000 nM | 120 nM | > 50000 nM |  |  |  | 1300 nM | 2500 nM | 2700 nM | 840 nM |  |  |  | 
4 | COc1cnc(CN/C=C2\C(=O)NC(=O)c3ccc(Br)cc32)cc1O [Example 332, 6-Bromo-4-{[(4-hydroxy-5-methoxy-pyridin-2-ylmethyl)-amino]-methylene}-4H-isoquinoline-1,3-dione] | 209 to 211 °C (dec.) |  |  |  | 2200 nM | 120 nM | 21300 nM |  |  |  |  | 540 nM | 3500 nM | 1300 nM | 3200 nM

Second part, led by results:

Row | melting point | IC50 (cyclin E/CDK2 enzyme; [2]) | IC50 (cyclin D1/cdk 4 enzyme; [3]) | IC50 (cyclin B/CDK1 enzyme; [4]) | IC50 (cyclin E/CDK2 enzyme; [6]) | IC50 (cyclin D1/cdk 4 enzyme; [7]) | IC50 (cyclin B/CDK1 enzyme; [8]) | SMILES | IC50 (BT474; [1]) | IC50 (HCT-116; 3 days) | IC50 (LoVo; 3 days) | IC50 (MCF-7; 3 days) | IC50 (BT474; [5]) | IC50 (HCT-116; three days) | IC50 (LoVo; three days) | IC50 (MCF-7; three days)
5 | 198 to 199 °C |  |  |  | 1500 nM | 5 nM | 6700 nM | CN(C)c1ccc(CN/C=C2\C(=O)NC(=O)c3ccc(I)cc32)cc1O [Example 347, (4Z)-4-({[4-(Dimethylamino)-3-hydroxybenzyl]amino}methylene)-6-iodoisoquinoline-1,3(2H,4H)-dione] |  |  |  |  | 2400 nM | 3100 nM | 2700 nM | 2200 nM
6 | 183 to 184 °C |  |  |  | > 50000 nM | 1600 nM | > 50000 nM | CC1CCCN1Cc1ccc(N/C=C2\C(=O)NC(=O)c3ccc(Br)cc32)cc1 (stereo not shown) [Example 287, (4Z)-6-Bromo-4-[({4-[(2-methylpyrrolidin-1-yl)methyl]phenyl}amino)methylene]-isoquinoline-1,3(2H,4H)-dione] |  |  |  |  | 1300 nM | 4200 nM | 5400 nM | 1700 nM
7 | 176 to 177 °C |  |  |  | > 50000 nM | 27700 nM | > 50000 nM | O=C1NC(=O)c2ccc(-c3ccc(C(F)(F)F)cc3)cc2/C1=C/Nc1ccc(CN2CCCC2)cc1 [Example 282, (4Z)-4-({[4-(Pyrrolidin-1-ylmethyl)phenyl]amino}methylene)-6-[4-(trifluoromethyl)phenyl]isoquinoline-1,3(2H,4H)-dione] |  |  |  |  | 3000 nM | 1100 nM | 2700 nM | 1100 nM
8 | 264 to 265 °C |  |  |  | 2400 nM | 400 nM | > 50000 nM | Cc1ccc(C)n1-c1ccc2c(c1)/C(=C/Nc1ccc(N3CCN(C)CC3)cc1)C(=O)NC2=O [Example 226, (4Z)-6-(2,5-Dimethyl-1H-pyrrol-1-yl)-4-({[4-(4-methylpiperazin-1-′yl)phenyl]amino}methylene)isoquinoline-1,3(2H,4H)-dione] |  |  |  |  | 3300 nM | 2400 nM | 4400 nM | 5200 nM
